Experimental data reported in patent US8334366B1, “Mutant lycotoxin-1 peptide sequences for insecticidal and cell membrane altering properties” (The United States of America, as represented by the …, priority 2009, dated 2012).

Assays:
[1] = system: INVSc1-XI-Lyt-1 yeast cells; assay: Scanning electron microscopy of yeast strains expressing variants; format: cell-based, Saccharomyces cerevisiae; settings: INVSc1-XI-Lyt-1 yeast strain expressing the variant
Procedure: Yeast cells from the plate were suspended in saline (0.85% NaCl) and centrifuged to remove the residual medium. Following a modified procedure of Bang and Pazirandeh [Bang and Pazirandeh. Physical properties and heavy metal uptake of encapsulated Escherichia coli expressing a metal binding gene (NCP). J. Microencapsul. 1999; 16(4): 489-499], the cell pellet was suspended and fixed in 2.5% glutaraldehyde prepared in 100 mM cacodylate buffer, pH 7.2, for 1 h on ice. To remove remaining glutaraldehyde, the cells were rinsed with the buffer twice and then with distilled water once, allowing several minutes for each step. The cells were dehydrated in solutions containing 50, 70, 80 and 100% ethanol successively for 15 min for each treatment. Cells were mounted on the aluminum stub and placed in the desiccator to dry overnight or until needed. The samples were subjected to scanning electron microscopy and analysis (Zeiss Supra 40 VP).

[2] = system: fall armyworm (Spodoptera frugiperda) larvae; assay: Lethality of single INVSc1-XI-Lyt-1 yeast strain isolates expressing Lyt-1 toxin variants on xylose plates to fall armyworm larvae; format: in vivo; settings: for relative mortality compared with mutants C3 and A6 (frequency analysis) / mortality compared pairwise (C6 vs B9; A6 vs C3), frequency analysis: SAS Proc Freq, data adjusted for colony size, P<0.05; for relative mortality compared with mutants C3 and A6 (frequency analysis): 20-insect sample; for state of armyworms on plates containing cultures expressing variants: compared with INVSc1-XI control plate; for Day 1 (% killed) / Day 2 (% killed): single isolates grown 3 days on CM xylose URA/TRP plates, 4 plates averaged, 20 larvae/plate, adjusted for colony size
Procedure: Samples of the transformation reactions from each of the multiplex wells were recovered on 86×128 mm rectangular CM glucose URA/TRP-selective plates for 2 days at 30° C. and diluted 10.000-fold in sterile water; then 200 μl was spotted onto the respective CM xylose URA/TRP-selective plates and allowed to grow for 3 days to generate a yeast growth area (spot) expressing toxins. The size of the spot was recorded and used to normalize the percent killed, since the percent is a function of the amount of yeast encountered. Twenty newly hatched armyworm larvae were added to the growth spot on the plate, the plate was covered with a lid having five small 0.4 mm openings in the center protected with cotton organdy cloth, and the lid was sealed to the plate with Microseal ‘A’ film (MJ Research, Waltham, Mass.) cut so that a gasket 5-mm wide could seal the edges. The plates were scored for the number of dead armyworms daily after adding the larvae until the assay was ended. Results from days 1 and 2 were of the greatest importance for a commercially viable insecticide. The multiplexed wells having the mutants showing greatest lethality (positions 8, 9, and 10) were selected and the multiplexed wells containing the lycotoxin-1 inserts in pENTR D TOPO corresponding to those positions were transformed into TOP 10 cells, single colonies picked from spread plates, and a plasmid preparation performed. The sequences of 90 AASM variant single isolates picked from the three most lethal multiplexed wells were determined. Forty-five of these had inserts with complete sequences in the correct orientation. Nine were C3, while 36 of them were unique variants and these were selected for the second lethality assay. They were moved into pSUMOduo/TRP via LR clonase, retransformed into INVSc1-XI yeast, and recovered on CM glucose URA/TRP-selective plates. Single colonies with sequence-verified inserts were picked into CM glucose URA/TRP-selective liquid medium, grown, and diluted 10,000-fold. A 100 μl sample was spotted onto CM xylose URA/TRP-selective plates and analyzed for lethality, along with samples containing C3, in quadruplicate, with 20 newly hatched armyworm larvae added to each plate. The variants were scored for dead armyworms and the percent killed was calculated.
Single colonies were picked from the multiplexed wells for the mutation positions showing greatest lethality. Growing yeast spots containing the individual variants were tested for lethality to fall armyworm larvae. Percent dead on day 2 for C3, B9, A6, and C6 were 71, 97, 74, and 100%, respectively (Table 2). The two AASM mutants B9 and C6 were more lethal than the NNR mutant C3. The numbers are normalized for diameter of the colony on the xylose plates. […] Frequency analysis was performed using SAS Proc Freq (SAS Institute 1999) with data adjusted for colony size and assuming a conservative 20-insect sample for each treatment.

[3] = system: transformed host cell; assay: Expression of variant peptide in transformed host cell (membrane crossing, intracellular membranes); format: cell-based; settings: expression in a transformed host cell
[4] = system: fall armyworm (Spodoptera frugiperda) larvae; assay: Initial screen: lyophilized yeast cultures expressing lycotoxin-1 / NNR mutants mixed with insect diet, armyworm larvae assay; settings: lyophilized yeast culture in pYES2-DEST52/INVSc1 mixed with rehydrated insect diet, oral, 20 newly hatched larvae

IWLTALKFLQKHAAKHLAKHSLSPW (Completely synthesized from synthetic oligonucleotides) [B9, lycotoxin-1 variant with mutations G10Q, Q20H, Q21S, K24P, L25W]
cell surface morphology in scanning electron micrographs [1]: numerous bulges and irregularities on the surface
relative mortality compared with mutants C3 and A6 (frequency analysis) [2]: significantly greater than mortality caused by mutants C3 and A6
state of armyworms on plates containing cultures expressing variants [2]: much smaller and mostly or all dead
Day 1 (% killed) [2]: 0.0%
Day 2 (% killed) [2]: 97%
Day 2 (% killed) ([2]; listed as XI Lyt-1 B9): 97.2%

IWLTALKFSGKHAAKHLAKQQLSPW (Completely synthesized from synthetic oligonucleotides) [C6, lycotoxin-1 variant with mutations L9S, K24P, L25W]
cell surface morphology in scanning electron micrographs [1]: numerous bulges and irregularities on the surface
build-up of intracellular membranes (tubules) on expression [3]: significant build-up of intracellular membranes
relative mortality compared with mutants C3 and A6 (frequency analysis) [2]: significantly greater than mortality caused by mutants C3 and A6
mortality compared pairwise (C6 vs B9; A6 vs C3), frequency analysis [2]: not significantly different
state of armyworms on plates containing cultures expressing variants [2]: much smaller and mostly or all dead
Day 1 (% killed) [2]: 3.7%
Day 2 (% killed) [2]: 100%
Day 2 (% killed) ([2]; listed as XI Lyt-1 C6): 100.0%

IWLTALKHLGKHAAKHLAKQQLSPW (Completely synthesized from synthetic oligonucleotides) [A6, lycotoxin-1 variant with mutations F8H, K24P, L25W]
cell surface morphology in scanning electron micrographs [1]: numerous bulges and irregularities on the surface
mortality compared pairwise (C6 vs B9; A6 vs C3), frequency analysis [2]: not significantly different
state of armyworms on plates containing cultures expressing variants [2]: much smaller and mostly or all dead
Day 1 (% killed) [2]: 13.2%
Day 2 (% killed) [2]: 74%
Day 2 (% killed) ([2]; listed as XI Lyt-1 A6): 74.1%

IWLTALKFLGKHAAKHLAKQQLSKL [wild-type lycotoxin-1]
lethality to armyworms in initial screening [4]: not found to be lethal
